A value given as a limit tells only on which side of the number the result lay.

In assay [1] the test system is Kasumi-1 human acute myeloid leukemia cell with c-KIT N822K activating mutation. Kind of assay: Kasumi-1 cell proliferation assay (CellTiter-96). It counts as cell-based. The note with it: Cytotoxicity, Kasumi-1 cells, 72 hours. The method, then:
(§1) Inhibition of cell growth by compounds was measured using CellTiter™-96 assay. The cytotoxicity of compounds was evaluated in CSF-1-dependent M-NFS-60 mouse myeloid leukemia cell, FLT3 signal addicted MV4-11 human acute myeloid leukemia cell with FLT3-ITD mutation, c-KIT signal addicted Kasumi-1 human acute myeloid leukemia cell with c-KIT N822K activating mutation, and THP-1 human acute monocytic leukemia cell harboring NRAS G12D mutation.
The compounds disclosed herein were tested in Kasumi cell proliferation assay to determine their cellular potency against c-KIT kinase. Kasumi human acute myeloid leukemia cells harbor ligand-independent N822K c-KIT activating mutation, thus the cell proliferation relied on c-KIT signal. Inhibition of c-KIT kinase activity will cause reduced growth and/or cell death. […] Cells were allowed to expand until reaching saturation at which point they were subcultured or harvested for assay use.
(§2) M-NFS-60, Kasumi-1, MV4-11 and THP-1 cells were seeded into 96-well plates at 2000, 64000, 6500, and 5000 cells/well, respectively, and incubated at 37° C., 5% CO2 overnight. Then, these seeded cells were treated with increasing concentrations of the test compounds and incubated for another 72 hours. At the end of the incubation, CellTiter96® AQueous One Solution Reagent (Promega) was added and incubated for 4 hours. Cell viability was determined by measuring absorbance at 490 nm using EMax® microplate reader (Molecular Devices).

Assay [2] has as its system MV4-11 human acute myeloid leukemia cell with FLT3-ITD mutation. Briefly: MV4-11 cell proliferation assay (CellTiter-96). It counts as cell-based. The note with it: Cytotoxicity, MV4-11 cells, 72 hours. On the procedure: as §1
The compounds disclosed herein were tested in MV4-11 cell proliferation assay to determine their cellular potency against FLT3 kinase. MV4-11 human acute myeloid leukemia cells harbor ligand-independent FLT3-ITD activating mutation, which render its proliferation FLT3-ITD dependent. Inhibition of FLT3 kinase activity will cause reduced growth and/or cell death. […] Cells were allowed to expand until reaching saturation at which point they were subcultured or harvested for assay use.
as §2

Assay [3] has as its system THP-1 human acute monocytic leukemia cell harboring NRAS G12D mutation. Kind of assay: THP-1 cell proliferation assay (counter screen, CellTiter-96). The format is cell-based. The note with it: Cytotoxicity, THP-1 cells (counter screen), 72 hours. The method, then: as §1
THP-1 human acute monocytic leukemia cells harbor NRAS G12D mutation, which renders cell proliferate independently of class III RTKs signal. […] Cells were allowed to expand until reaching saturation at which point they were subcultured or harvested for assay use.
as §2

The subject of assay [4] is CSF-1-dependent M-NFS-60 mouse myeloid leukemia cell. Briefly: M-NFS-60 cell proliferation assay (CellTiter-96). It counts as cell-based. The note with it: Cytotoxicity, M-NFS-60 cells, 72 hours. The method, then:
as §1
The compounds disclosed herein were tested in M-NFS-60 cell proliferation assay to determine their cellular potency against CSF-1R. […] Inhibition of CSF-1R kinase activity will cause reduced growth and/or cell death. […] Cells were allowed to expand until reaching saturation at which point they were subcultured or harvested for assay use.
as §2

The target of the next assay is FLT3 kinase (Homo sapiens (Human), UniProt P36888). Briefly: FLT3 kinase assay (radiometric). It counts as biochemical. The note with it: bound. The method, then: Inhibition of FLT3 kinase activity by a test compound disclosed herein was estimated by radiometric assay. Standard assay conditions were 5 ng of recombinant FLT3 (Thermo Fisher) with 2 μg of substrate Poly-(Glu 4:Tyr 1) (sigma) in the assay buffer in kinase reaction buffer (10 mM MOPS pH 7.0, 0.21 mM EDTA, 0.5% glycerol, 0.001% Brij-35, 0.01 2-mercaptoehtanol, 1 mg/ml BSA, MgCl2 10 mM, 10 μM ATP, 0.1 μCi per well [^33P]-ATP, in the presence of test compound (diluted in final concentration of 4% DMSO) or DMSO control, with a final volume of 25 μl for 60 minutes at 30° C. The reaction was stopped by adding 5 μl of 3% phosphoric acid solution. Total reaction solution was then harvested onto a filter plate (UniFilter-96 GF/B, PerkinElmer), and washed 20 times for 5 min with dH2O. 30 μl of MicroScint™-20 Cocktail (PerkinElmer) was added to dried plate. The plate was sealed and counted using a TopCount scintillation detector (PerkinElmer). […] The IC50 values of quinoxaline compounds of this invention against FLT3 kinase were determined using the GraphPad Prism 5 software.
(§3) The IC50 values for selected quinoxaline compounds of this invention against CSF-1R, c-KIT, FLT3, and PDGFRβ are summarized in Table 3.

Another assay has as its target PDGFRβ kinase (Homo sapiens (Human), UniProt P09619). Kind of assay: PDGFRβ kinase assay (radiometric). It counts as biochemical. The note with it: bound. On the procedure:
(§4) Inhibition of PDGFRβ kinase activity by a test compound disclosed herein was estimated by radiometric assay. Standard assay conditions were 10 ng of recombinant PDGFRβ (SignalChem) with 2 μg of substrate Poly-(Glu 4:Tyr 1) (sigma) in the assay buffer in kinase reaction buffer (10 mM MOPS pH 7.0, 0.21 mM EDTA, 0.5% glycerol, 0.001% Brij-35, 0.01 2-mercaptoehtanol, 1 mg/ml BSA, 10 mM MgCl2, 10 mM MnCl2, 10 μM ATP, 0.1 μCi per well [^33P]-ATP), in the presence of test compound (diluted in final concentration of 4% DMSO) or DMSO control, with a final volume of 25 μl for 60 minutes at 30° C. The reaction was stopped by adding 5 μl of 3% phosphoric acid solution. Total reaction solution was then harvested onto a filter plate (UniFilter-96 GF/B, PerkinElmer), and washed 20 times for 5 min with dH2O. 30 μl of MicroScint™-20 Cocktail (PerkinElmer) was added to dried plate. The plate was sealed and counted using a TopCount scintillation detector (PerkinElmer). […] The IC50 values of quinoxaline compounds of this invention against PDGFRβ kinase were determined using the GraphPad Prism 5 software.
as §3

For another assay, the target named is c-KIT kinase (Homo sapiens (Human), UniProt P10721). Kind of assay: c-KIT kinase assay (radiometric). The format is biochemical. The method, then: as §4, with “of c-KIT” for “of PDGFRβ”, “were 20” for “were 10”, “recombinant c-Kit” for “recombinant PDGFRβ”, “well [^33P]-ATP,” for “well [^33P]-ATP),”, “against c-KIT” for “against PDGFRβ”
as §3

Sequence of PDGFRβ kinase (P09619 33-1106): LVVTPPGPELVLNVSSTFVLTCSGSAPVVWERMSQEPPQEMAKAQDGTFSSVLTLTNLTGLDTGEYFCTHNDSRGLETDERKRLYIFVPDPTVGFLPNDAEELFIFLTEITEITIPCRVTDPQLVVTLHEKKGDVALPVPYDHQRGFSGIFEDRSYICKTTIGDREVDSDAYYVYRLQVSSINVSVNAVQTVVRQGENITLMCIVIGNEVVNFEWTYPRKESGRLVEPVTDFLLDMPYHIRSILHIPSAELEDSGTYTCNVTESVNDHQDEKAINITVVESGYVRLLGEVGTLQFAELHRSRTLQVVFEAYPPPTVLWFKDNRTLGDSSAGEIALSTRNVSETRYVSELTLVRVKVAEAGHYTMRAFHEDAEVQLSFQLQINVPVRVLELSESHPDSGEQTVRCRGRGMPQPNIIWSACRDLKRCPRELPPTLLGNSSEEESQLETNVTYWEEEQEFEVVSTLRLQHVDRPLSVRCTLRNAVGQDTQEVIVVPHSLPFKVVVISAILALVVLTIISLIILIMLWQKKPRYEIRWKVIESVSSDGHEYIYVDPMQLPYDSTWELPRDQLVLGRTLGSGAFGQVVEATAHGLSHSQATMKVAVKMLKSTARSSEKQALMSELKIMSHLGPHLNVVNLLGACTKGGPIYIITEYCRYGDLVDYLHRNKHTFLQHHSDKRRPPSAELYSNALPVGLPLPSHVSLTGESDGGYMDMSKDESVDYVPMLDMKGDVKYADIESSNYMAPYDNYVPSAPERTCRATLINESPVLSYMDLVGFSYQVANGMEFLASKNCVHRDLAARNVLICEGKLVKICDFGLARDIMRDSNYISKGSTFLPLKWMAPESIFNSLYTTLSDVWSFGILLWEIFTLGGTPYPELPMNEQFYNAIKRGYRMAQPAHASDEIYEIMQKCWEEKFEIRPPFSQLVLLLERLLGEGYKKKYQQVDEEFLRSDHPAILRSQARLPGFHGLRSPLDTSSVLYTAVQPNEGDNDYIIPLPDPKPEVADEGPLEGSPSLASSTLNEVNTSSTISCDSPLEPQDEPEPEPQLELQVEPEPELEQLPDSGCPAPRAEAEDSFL
Sequence of c-KIT kinase (P10721 26-976): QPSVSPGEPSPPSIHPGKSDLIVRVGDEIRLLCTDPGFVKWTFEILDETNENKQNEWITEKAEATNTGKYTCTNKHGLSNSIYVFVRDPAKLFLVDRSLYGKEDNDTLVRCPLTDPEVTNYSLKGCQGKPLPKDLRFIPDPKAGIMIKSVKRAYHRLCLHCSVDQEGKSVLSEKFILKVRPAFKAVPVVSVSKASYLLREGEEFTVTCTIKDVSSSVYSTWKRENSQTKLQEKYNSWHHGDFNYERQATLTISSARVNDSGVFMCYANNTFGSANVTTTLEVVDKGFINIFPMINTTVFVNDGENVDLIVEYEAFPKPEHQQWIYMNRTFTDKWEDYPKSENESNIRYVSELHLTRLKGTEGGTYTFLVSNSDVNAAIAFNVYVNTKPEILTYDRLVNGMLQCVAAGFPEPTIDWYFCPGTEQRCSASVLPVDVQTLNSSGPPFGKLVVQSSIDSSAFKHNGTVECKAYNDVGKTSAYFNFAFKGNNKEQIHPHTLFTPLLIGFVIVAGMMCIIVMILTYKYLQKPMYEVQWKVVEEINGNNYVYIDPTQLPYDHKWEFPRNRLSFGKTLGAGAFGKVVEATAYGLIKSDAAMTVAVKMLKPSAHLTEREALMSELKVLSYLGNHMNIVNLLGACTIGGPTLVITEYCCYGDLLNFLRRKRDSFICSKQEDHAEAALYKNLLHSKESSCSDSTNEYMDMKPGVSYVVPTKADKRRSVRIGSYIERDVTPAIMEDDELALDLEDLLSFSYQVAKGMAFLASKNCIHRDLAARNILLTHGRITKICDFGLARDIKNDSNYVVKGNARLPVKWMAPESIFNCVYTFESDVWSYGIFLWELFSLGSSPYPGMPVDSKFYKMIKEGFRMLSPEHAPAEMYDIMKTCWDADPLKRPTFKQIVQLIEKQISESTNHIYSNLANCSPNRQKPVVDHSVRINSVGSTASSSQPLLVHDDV
Sequence of FLT3 kinase (P36888 27-993): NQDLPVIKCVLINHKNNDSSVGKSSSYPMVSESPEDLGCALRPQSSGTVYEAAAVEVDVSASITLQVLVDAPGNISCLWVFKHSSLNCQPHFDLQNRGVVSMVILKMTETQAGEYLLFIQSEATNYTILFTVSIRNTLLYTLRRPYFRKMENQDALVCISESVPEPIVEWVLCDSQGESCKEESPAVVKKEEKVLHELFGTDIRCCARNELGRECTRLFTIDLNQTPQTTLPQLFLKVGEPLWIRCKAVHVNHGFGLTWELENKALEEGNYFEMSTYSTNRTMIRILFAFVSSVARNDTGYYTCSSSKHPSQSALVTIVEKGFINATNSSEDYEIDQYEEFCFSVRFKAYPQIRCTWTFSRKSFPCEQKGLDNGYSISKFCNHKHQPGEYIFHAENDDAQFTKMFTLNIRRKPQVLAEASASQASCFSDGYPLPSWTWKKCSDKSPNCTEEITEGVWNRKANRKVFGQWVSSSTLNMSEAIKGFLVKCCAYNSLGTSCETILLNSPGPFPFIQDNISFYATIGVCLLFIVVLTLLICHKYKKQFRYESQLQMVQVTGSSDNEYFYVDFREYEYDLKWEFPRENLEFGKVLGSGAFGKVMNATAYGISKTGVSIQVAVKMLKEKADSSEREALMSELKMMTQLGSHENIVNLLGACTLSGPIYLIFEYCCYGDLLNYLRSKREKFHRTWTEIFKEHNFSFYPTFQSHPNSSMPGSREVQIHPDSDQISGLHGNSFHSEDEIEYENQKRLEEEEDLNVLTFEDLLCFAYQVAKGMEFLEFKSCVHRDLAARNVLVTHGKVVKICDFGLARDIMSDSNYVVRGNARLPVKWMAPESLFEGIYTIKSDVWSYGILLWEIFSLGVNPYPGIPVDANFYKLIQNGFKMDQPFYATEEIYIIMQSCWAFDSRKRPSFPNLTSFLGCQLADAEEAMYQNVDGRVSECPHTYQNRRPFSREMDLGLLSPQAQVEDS

On to `COc1cnc2ccc(Nc3ccc(NCc4ccc(C(F)(F)F)nc4)nc3)c(C#N)c2n1` [Example 1, 3-methoxy-6-((6-(((6-(trifluoromethyl)pyridin-3-yl)methyl)amino)pyridin-3-yl)amino)quinoxaline-5-carbonitrile], for which the IC50 in assay [1] was 1 to 10 µM; in assay [2] it was 1 to 10 µM; in assay [3], over 10 µM; in assay [4] it was over 10 µM.

Consider `COc1cnc2ccc(Nc3ccc(OCc4cccnc4)c(OC)c3)c(C#N)c2n1` [Example 8, 3-methoxy-6-((3-methoxy-4-(pyridin-3-ylmethoxy)phenyl)amino)quinoxaline-5-carbonitrile], for which the IC50 in assay [1] is over 10 µM; in assay [2], 1 to 10 µM; in assay [3], over 10 µM; in assay [4], over 10 µM.

With `COc1cc(Nc2ccc3ncc(N4CCOCC4)nc3c2C#N)ccc1OCc1cnc(C)nc1` [Example 128, 6-((3-methoxy-4-((2-methylpyrimidin-5-yl)methoxy)phenyl)amino)-3-morpholinoquinoxaline-5-carbonitrile], the IC50 on FLT3 kinase is over 1 µM; at PDGFRβ kinase, over 1 µM; at c-KIT kinase (class symbol) it was 0.3 to 1 µM.

For `COc1cc(Nc2ccc3ncc(N4CCOCC4)nc3c2C#N)ccc1OCC1(C)COC1` [Example 41, 6-((3-methoxy-4-((3-methyloxetan-3-yl)methoxy)phenyl)amino)-3-morpholinoquinoxaline-5-carbonitrile], the IC50 was 1 to 10 µM in assay [1], 1 to 10 µM in assay [2], over 10 µM in assay [3] and over 10 µM in assay [4].

Regarding `COc1cc(Nc2ccc3ncc(N4CCOCC4)nc3c2C#N)ccc1OCC1CCCC1` [Example 44, 6-((4-(cyclopentylmethoxy)-3-methoxyphenyl)amino)-3-morpholinoquinoxaline-5-carbonitrile], the IC50 in assay [1] is 1 to 10 µM; in assay [2] it was 1 to 10 µM; in assay [3], over 10 µM; in assay [4], 1 to 10 µM.

As for `CCOc1cc(Nc2ccc3ncc(N4CCOCC4)nc3c2C#N)ccc1OCc1ccncc1` [Example 47, 6-((3-ethoxy-4-(pyridin-4-ylmethoxy)phenyl)amino)-3-morpholinoquinoxaline-5-carbonitrile], the IC50 in assay [1] was over 10 µM; in assay [2], 1 to 10 µM; in assay [3], over 10 µM; in assay [4] it was 1 to 10 µM.

For `COc1ccc(CNc2ccc(Nc3ccc4ncc(OC)nc4c3C#N)cc2OC)cc1` [Example 14, 3-methoxy-6-((3-methoxy-4-((4-methoxybenzyl)amino)phenyl)amino)quinoxaline-5-carbonitrile], the IC50 in assay [1] is over 10 µM; in assay [2], 1 to 10 µM; in assay [3] it was over 10 µM; in assay [4], over 10 µM.

For the compound `COc1cc(Nc2ccc3ncc(N4CCOCC4)nc3c2C#N)ccc1OCc1cccnc1` [Example 43, 6-((3-methoxy-4-(pyridin-3-ylmethoxy)phenyl)amino)-3-morpholinoquinoxaline-5-carbonitrile], the 50% inhibitory concentration (IC50) against FLT3 kinase was over 1 µM; on PDGFRβ kinase, over 1 µM; on c-KIT kinase (class symbol), under 0.1 µM.

Turning to `COc1ccc(COc2ccc(Oc3ccc4ncc(OC)nc4c3C#N)cc2OC)cc1` [Example 26, 3-methoxy-6-(3-methoxy-4-((4-methoxybenzyl)oxy)phenoxy)quinoxaline-5-carbonitrile], the IC50 against FLT3 kinase, at PDGFRβ kinase and at c-KIT kinase (bound) was over 1 µM each time.

As for `COc1cc(Nc2ccc3ncc(N4CCOCC4)nc3c2C#N)ccc1OCc1cnn(C2CC2)c1` [Example 134, 6-((4-((1-cyclopropyl-1H-pyrazol-4-yl)methoxy)-3-methoxy-phenyl)amino)-3-morpholinoquinoxaline-5-carbonitrile], the IC50 against FLT3 kinase was over 1 µM; against PDGFRβ kinase, over 1 µM; against c-KIT kinase (class symbol), under 0.1 µM.

Turning to `COc1cc(Nc2ccc3ncc(N4CCOCC4)nc3c2C#N)ccc1OCc1ccc(C)nc1` [Example 54, 6-((3-methoxy-4-((6-methylpyridin-3-yl)methoxy)phenyl)amino)-3-morpholinoquinoxaline-5-carbonitrile], the IC50 against FLT3 kinase is over 1 µM; against PDGFRβ kinase, over 1 µM; against c-KIT kinase (class symbol), under 0.1 µM.

As for `COc1cnc2ccc(Nc3ccc(OCc4cccnc4)nc3)c(C#N)c2n1` [Example 6, 3-methoxy-6-((6-(pyridin-3-ylmethoxy)pyridin-3-yl)amino)quinoxaline-5-carbonitrile], the concentration for half-maximal inhibition (IC50) is over 10 µM in assay [1], 1 to 10 µM in assay [2], over 10 µM in assay [3] and over 10 µM in assay [4].

For `COc1cnc2ccc(Nc3ccc(OC)c(OC)c3)c(C#N)c2n1` [Example 11, 6-((3,4-dimethoxyphenyl)amino)-3-methoxyquinoxaline-5-carbonitrile], the IC50 in assay [1] was 1 to 10 µM; in assay [2] it was 1 to 10 µM; in assay [3], over 10 µM; in assay [4], over 10 µM.

With `COc1ccc(COc2ccc(Oc3ccc4ncc(OC)nc4c3C#N)cc2OC)cc1` [Example 10, 3-methoxy-6-(3-methoxy-4-((4-methoxpenzyl)oxy)phenoxy)quinoxaline-5-carbonitrile], the IC50 against PDGFRβ kinase is over 1 µM.

As to `CCOc1cc(Oc2ccc3ncc(OC)nc3c2C#N)ccc1OCc1ccc(OC)cc1` [Example 30, 6-(3-ethoxy-4-((4-methoxybenzyl)oxy)phenoxy)-3-methoxyquinoxaline-5-carbonitrile], the IC50 against FLT3 kinase, against PDGFRβ kinase and at c-KIT kinase (bound) was over 1 µM in each case.

The term IC50 denotes the concentration needed to halve the response being measured. Low values mean higher potency, high ones lower potency.

Values taken from patent publication US10689362B2, “Quinoxaline compounds as type III receptor tyrosine kinase inhibitors” (Development Center for Biotechnology, priority 2016, dated 2020).
